Test results published in patent publication US20230085307A1, “PYRIDAZINONE COMPOUND AND HERBICIDE” (NISSAN CHEMICAL CORPORATION, priority 2019, published 2023).

Experiments:
late watergrass [1] = assay: Test Example 2: herbicidal activity, application during weed generation under submerged conditions (Table 17, symbol A); format: in vivo, late watergrass (Echinochloa oryzicola); details: AAH 320 g/ha; application during weed generation, submerged conditions
In short: (§1)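 Wagner pot, alluvial soil, 4 cm flood; mixed sowing of all species; greenhouse 25° C.–30° C. Emulsifiable formulation, water-diluted to predetermined dose, applied to paddy water at 1–2 leaf stage. Effect rated at 3 wk using the earlier test's scoring criteria.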

Italian ryegrass [2] = assay: Test Example 4: herbicidal effect by soil treatment (Table 19, symbol K); format: in vivo, Italian ryegrass (Lolium multiflorum); details: amount of applied herbicide 320 g/ha
In short: (§2)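 Pre-emergence style soil spray: seeds under ~1.5 cm sterilized diluvial soil received a uniform coat of emulsion diluted to the predetermined herbicide amount. Greenhouse 25–30° C; readout at week three on previously defined criteria.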

wild oat = assay: Test Example 4: herbicidal effect by soil treatment (Table 19, symbol I); format: in vivo, wild oat (Avena fatua); details: amount of applied herbicide 320 g/ha
In short: as §2

Italian ryegrass [3] = assay: Test Example 5: herbicidal effect by foliage application, plastic box (Table 20, symbol K); format: in vivo, Italian ryegrass (Lolium multiflorum); details: foliage application; for K: Italian ryegrass, herbicidal effect (criteria 0-5): AAH 320 g/ha, evaluated three weeks after application
In short: (§3)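 Plants were sown into sterilized diluvial soil under about 1.5 cm cover and kept in a greenhouse at 25° C. to 30° C. Fourteen days on, foliage received an even spray of the diluted emulsion. Herbicidal or crop effect was judged three weeks afterwards.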

blackgrass [4] = assay: Test Example 5: herbicidal effect by foliage application, plastic box (Table 20, symbol J); format: in vivo, blackgrass (Alopecurus myosuroides); details: foliage application; for J: blackgrass, herbicidal effect (criteria 0-5): AAH 320 g/ha, evaluated three weeks after application
In short: as §3

chickweed [5] = assay: Test Example 4: herbicidal effect by soil treatment (Table 19, symbol P); format: in vivo, common chickweed (Stellaria media); details: amount of applied herbicide 320 g/ha
In short: as §2

chickweed [6] = assay: Test Example 5: herbicidal effect by foliage application, plastic box (Table 20, symbol P); format: in vivo, common chickweed (Stellaria media); details: foliage application; for P: chickweed, herbicidal effect (criteria 0-5): AAH 320 g/ha, evaluated three weeks after application
In short: as §3

southern crabgrass = assay: Test Example 5: herbicidal effect by foliage application, plastic box (Table 20, symbol F); format: in vivo, southern crabgrass (Digitaria ciliaris); details: foliage application; for F: southern crabgrass, herbicidal effect (criteria 0-5): AAH 320 g/ha, evaluated three weeks after application
In short: as §3

late watergrass [7] = assay: Test Example 1: herbicidal activity, application before weed generation under submerged conditions (Table 16, symbol A); format: in vivo, late watergrass (Echinochloa oryzicola); details: amount of applied herbicide 320 g/ha
In short: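 Alluvial soil was flooded to 4 cm depth, weed seeds were sown mixed and 2.5-leaf rice seedlings were transplanted. On sowing day, the compound's emulsion, diluted in water to a set dose, was applied to the water surface. Plants grew at 25–30 °C and were scored 0–5 after three weeks.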

Japanese bulrush = assay: Test Example 2: herbicidal activity, application during weed generation under submerged conditions (Table 17, symbol B); format: in vivo, Japanese bulrush (Schoenoplectus juncoides); details: AAH 320 g/ha; application during weed generation, submerged conditions
In short: as §1

lambsquarters = assay: Test Example 4: herbicidal effect by soil treatment (Table 19, symbol O); format: in vivo, lambsquarters (Chenopodium album); details: amount of applied herbicide 320 g/ha
In short: as §2

velvetleaf = assay: Test Example 5: herbicidal effect by foliage application, plastic box (Table 20, symbol M); format: in vivo, velvetleaf (Abutilon theophrasti); details: foliage application; for M: velvetleaf, herbicidal effect (criteria 0-5): AAH 320 g/ha, evaluated three weeks after application
In short: as §3

blackgrass [8] = assay: Test Example 4: herbicidal effect by soil treatment (Table 19, symbol J); format: in vivo, blackgrass (Alopecurus myosuroides); details: amount of applied herbicide 320 g/ha
In short: as §2

redroot pigweed = assay: Test Example 5: herbicidal effect by foliage application, plastic box (Table 20, symbol N); format: in vivo, redroot pigweed (Amaranthus retroflexus); details: foliage application, AAH 320 g/ha, evaluated three weeks after application
In short: as §3

persian speedwell = assay: Test Example 4: herbicidal effect by soil treatment (Table 19, symbol R); format: in vivo, Persian speedwell (Veronica persica); details: amount of applied herbicide 320 g/ha
In short: as §2

oval-leafed pondweed = assay: Test Example 2: herbicidal activity, application during weed generation under submerged conditions (Table 17, symbol C); format: in vivo, oval-leafed pondweed (Monochoria vaginalis); details: AAH 320 g/ha; application during weed generation, submerged conditions
In short: as §1

[9] = 320 g/ha, three weeks after application

Cc1nn(C)c(=O)c(-c2c(-c3cnccc3C(F)(F)F)sc3ccc(F)cc23)c1O [2-387]
herbicidal effect rating, A: late watergrass (late watergrass [1]): 4 (Herbicidal rate of 70% or more and less than 90%)
herbicidal effect, K: Italian ryegrass (Italian ryegrass [2]): 4 (Herbicidal rate of 70% or more and less than 90%)
herbicidal effect, I: wild oat (wild oat): 1 (Herbicidal rate of 5% or more and less than 20%)
K: Italian ryegrass, herbicidal effect (criteria 0-5) (Italian ryegrass [3]): 4 (Herbicidal rate of 70% or more and less than 90%)
J: blackgrass, herbicidal effect (criteria 0-5) (blackgrass [4]): 4 (Herbicidal rate of 70% or more and less than 90%)
herbicidal effect, P: chickweed (chickweed [5]): 4 (Herbicidal rate of 70% or more and less than 90%)
P: chickweed, herbicidal effect (criteria 0-5) (chickweed [6]): 5 (Herbicidal rate of 90% or more (almost completely withered))
F: southern crabgrass, herbicidal effect (criteria 0-5) (southern crabgrass): 4 (Herbicidal rate of 70% or more and less than 90%)
Herbicidal effect, A: late watergrass (late watergrass [7]): 3 (Herbicidal rate of 40% or more and less than 70%)
herbicidal effect rating, B: Japanese bulrush (Japanese bulrush): 4 (Herbicidal rate of 70% or more and less than 90%)
herbicidal effect, O: lambsquarters (lambsquarters): 4 (Herbicidal rate of 70% or more and less than 90%)
M: velvetleaf, herbicidal effect (criteria 0-5) (velvetleaf): 5 (Herbicidal rate of 90% or more (almost completely withered))
herbicidal effect, J: blackgrass (blackgrass [8]): 0 (Herbicidal rate of 5% or less (almost no effect))
N: redroot pigweed, herbicidal effect (criteria 0-5) (redroot pigweed): 5 (Herbicidal rate of 90% or more (almost completely withered))
herbicidal effect, R: persian speedwell (persian speedwell): 5 (Herbicidal rate of 90% or more (almost completely withered))
herbicidal effect rating, C: oval-leafed pondweed (oval-leafed pondweed): 4 (Herbicidal rate of 70% or more and less than 90%)

CCCC(=O)Oc1c(C)nn(C)c(=O)c1-c1c(-c2ccc(Cl)s2)sc2ccc(F)cc12 [2-391]
herbicidal effect rating, A: late watergrass (late watergrass [1]): 3 (Herbicidal rate of 40% or more and less than 70%)
herbicidal effect, K: Italian ryegrass (Italian ryegrass [2]): 5 (Herbicidal rate of 90% or more (almost completely withered))
herbicidal effect, I: wild oat (wild oat): 0 (Herbicidal rate of 5% or less (almost no effect))
K: Italian ryegrass, herbicidal effect (criteria 0-5) (Italian ryegrass [3]): 5 (Herbicidal rate of 90% or more (almost completely withered))
J: blackgrass, herbicidal effect (criteria 0-5) (blackgrass [4]): 3 (Herbicidal rate of 40% or more and less than 70%)
herbicidal effect, P: chickweed (chickweed [5]): 4 (Herbicidal rate of 70% or more and less than 90%)
P: chickweed, herbicidal effect (criteria 0-5) (chickweed [6]): 5 (Herbicidal rate of 90% or more (almost completely withered))
F: southern crabgrass, herbicidal effect (criteria 0-5) (southern crabgrass): 5 (Herbicidal rate of 90% or more (almost completely withered))
Herbicidal effect, A: late watergrass (late watergrass [7]): 5 (Herbicidal rate of 90% or more (almost completely withered))
herbicidal effect rating, B: Japanese bulrush (Japanese bulrush): 4 (Herbicidal rate of 70% or more and less than 90%)
herbicidal effect, O: lambsquarters (lambsquarters): 4 (Herbicidal rate of 70% or more and less than 90%)
M: velvetleaf, herbicidal effect (criteria 0-5) (velvetleaf): 5 (Herbicidal rate of 90% or more (almost completely withered))
herbicidal effect, J: blackgrass (blackgrass [8]): 2 (Herbicidal rate of 20% or more and less than 40%)
N: redroot pigweed, herbicidal effect (criteria 0-5) (redroot pigweed): 5 (Herbicidal rate of 90% or more (almost completely withered))
herbicidal effect, R: persian speedwell (persian speedwell): 3 (Herbicidal rate of 40% or more and less than 70%)
herbicidal effect rating, C: oval-leafed pondweed (oval-leafed pondweed): 5 (Herbicidal rate of 90% or more (almost completely withered))

Cc1nn(C)c(=O)c(-c2c(-c3ccc4c(c3)OC(F)(F)O4)sc3ccc(F)cc23)c1O [2-392]
herbicidal effect rating, A: late watergrass (late watergrass [1]): 2 (Herbicidal rate of 20% or more and less than 40%)
herbicidal effect, K: Italian ryegrass (Italian ryegrass [2]): 3 (Herbicidal rate of 40% or more and less than 70%)
herbicidal effect, I: wild oat (wild oat): 0 (Herbicidal rate of 5% or less (almost no effect))
K: Italian ryegrass, herbicidal effect (criteria 0-5) (Italian ryegrass [3]): 5 (Herbicidal rate of 90% or more (almost completely withered))
J: blackgrass, herbicidal effect (criteria 0-5) (blackgrass [4]): 0 (Herbicidal rate of 5% or less (almost no effect))
herbicidal effect, P: chickweed (chickweed [5]): 5 (Herbicidal rate of 90% or more (almost completely withered))
P: chickweed, herbicidal effect (criteria 0-5) (chickweed [6]): 5 (Herbicidal rate of 90% or more (almost completely withered))
F: southern crabgrass, herbicidal effect (criteria 0-5) (southern crabgrass): 4 (Herbicidal rate of 70% or more and less than 90%)
Herbicidal effect, A: late watergrass (late watergrass [7]): 3 (Herbicidal rate of 40% or more and less than 70%)
herbicidal effect rating, B: Japanese bulrush (Japanese bulrush): 0 (Herbicidal rate of 5% or less (almost no effect))
herbicidal effect, O: lambsquarters (lambsquarters): 3 (Herbicidal rate of 40% or more and less than 70%)
M: velvetleaf, herbicidal effect (criteria 0-5) (velvetleaf): 5 (Herbicidal rate of 90% or more (almost completely withered))
herbicidal effect, J: blackgrass (blackgrass [8]): 0 (Herbicidal rate of 5% or less (almost no effect))
N: redroot pigweed, herbicidal effect (criteria 0-5) (redroot pigweed): 4 (Herbicidal rate of 70% or more and less than 90%)
herbicidal effect, R: persian speedwell (persian speedwell): 5 (Herbicidal rate of 90% or more (almost completely withered))
herbicidal effect rating, C: oval-leafed pondweed (oval-leafed pondweed): 0 (Herbicidal rate of 5% or less (almost no effect))

CCOc1ccccc1-c1sc2ccc(F)cc2c1-c1c(O)c(CC)nn(C)c1=O [2-416]
herbicidal effect rating, A: late watergrass (late watergrass [1]): 2 (Herbicidal rate of 20% or more and less than 40%)
herbicidal effect, K: Italian ryegrass (Italian ryegrass [2]): 0 (Herbicidal rate of 5% or less (almost no effect))
herbicidal effect, I: wild oat (wild oat): 0 (Herbicidal rate of 5% or less (almost no effect))
K: Italian ryegrass, herbicidal effect grade (Italian ryegrass [3]; [9]): 0 (Herbicidal rate of 5% or less (almost no effect))
J: blackgrass, herbicidal effect grade (blackgrass [4]; [9]): 0 (Herbicidal rate of 5% or less (almost no effect))
herbicidal effect, P: chickweed (chickweed [5]): 2 (Herbicidal rate of 20% or more and less than 40%)
P: chickweed, herbicidal effect grade (chickweed [6]; [9]): 5 (Herbicidal rate of 90% or more (almost completely withered))
F: southern crabgrass, herbicidal effect grade (southern crabgrass; [9]): 1 (Herbicidal rate of 5% or more and less than 20%)
Herbicidal effect, A: late watergrass (late watergrass [7]): 3 (Herbicidal rate of 40% or more and less than 70%)
herbicidal effect rating, B: Japanese bulrush (Japanese bulrush): 3 (Herbicidal rate of 40% or more and less than 70%)
herbicidal effect, O: lambsquarters (lambsquarters): 0 (Herbicidal rate of 5% or less (almost no effect))
M: velvetleaf, herbicidal effect grade (velvetleaf; [9]): 3 (Herbicidal rate of 40% or more and less than 70%)
herbicidal effect, J: blackgrass (blackgrass [8]): 0 (Herbicidal rate of 5% or less (almost no effect))
herbicidal effect, R: persian speedwell (persian speedwell): 0 (Herbicidal rate of 5% or less (almost no effect))
herbicidal effect rating, C: oval-leafed pondweed (oval-leafed pondweed): 2 (Herbicidal rate of 20% or more and less than 40%)

COCCOc1ccc(-c2oc3ccccc3c2-c2c(O)c(C)nn(C)c2=O)cc1 [Compound No. 8-007, 5-hydroxy-4-(2-(4-(2-methoxyethoxy)phenyl)benzofuran-3-yl)-2,6-dimethylpyridazin-3-(2H)-one]
herbicidal effect rating, A: late watergrass (late watergrass [1]): 5 (Herbicidal rate of 90% or more (almost completely withered))
K: Italian ryegrass, herbicidal effect grade (Italian ryegrass [2]): 4 (Herbicidal rate of 70% or more and less than 90%)
I: wild oat, herbicidal effect grade (wild oat): 0 (Herbicidal rate of 5% or less (almost no effect))
herbicidal effect on Italian ryegrass (K) (Italian ryegrass [3]; [9]): 5 (Herbicidal rate of 90% or more (almost completely withered))
herbicidal effect on blackgrass (J) (blackgrass [4]; [9]): 5 (Herbicidal rate of 90% or more (almost completely withered))
P: chickweed, herbicidal effect grade (chickweed [5]): 0 (Herbicidal rate of 5% or less (almost no effect))
herbicidal effect on southern crabgrass (F) (southern crabgrass; [9]): 5 (Herbicidal rate of 90% or more (almost completely withered))
Herbicidal effect, A: late watergrass (late watergrass [7]): 5 (Herbicidal rate of 90% or more (almost completely withered))
herbicidal effect rating, B: Japanese bulrush (Japanese bulrush): 4 (Herbicidal rate of 70% or more and less than 90%)
O: lambsquarters, herbicidal effect grade (lambsquarters): 4 (Herbicidal rate of 70% or more and less than 90%)
herbicidal effect on velvetleaf (M) (velvetleaf; [9]): 5 (Herbicidal rate of 90% or more (almost completely withered))
J: blackgrass, herbicidal effect grade (blackgrass [8]): 3 (Herbicidal rate of 40% or more and less than 70%)
R: persian speedwell, herbicidal effect grade (persian speedwell): 2 (Herbicidal rate of 20% or more and less than 40%)
herbicidal effect rating, C: oval-leafed pondweed (oval-leafed pondweed): 3 (Herbicidal rate of 40% or more and less than 70%)
